IC50 and inhibition data for five compounds are collected here from patent US20250368649A1, “TETRAHYDROPYRIDOPYRIMIDINE PAN-KRAS INHIBITORS” (Mirati Therapeutics, Inc., priority 2022, published 2025).

One may read the IC50 as the midpoint of a concentration-inhibition curve. The low end stands for greater potency in that assay, the high end for weaker potency in that assay. As a reminder, the inhibition is the drop in the measured response relative to a control, in per cent.

One assay deals with HCT116 cells. Nature of the assay: Inhibition of KRas-mediated phosphorylation of ERK (Cisbio HTRF pERK), HCT116 cells. It is filed as cell-based. Conditions: Homo sapiens; for IC50: HCT-116, 3 h, 3 hr compound incubation, Cisbio pERK HTRF; for inhibition at 0.1 µM: HCT-116, single point at 100 nM, 3 hrs compound incubation.
For another assay, the system named is H727 cells. Nature of the assay: Inhibition of KRas-mediated phosphorylation of ERK (Cisbio HTRF pERK), H727 cells. It counts as cell-based. The settings on record: Homo sapiens; for IC50: NCI-H727, 3 h, 3 hr compound incubation, Cisbio pERK HTRF. A general note: TR-FRET usually uses a lanthanide donor and a delayed reading to cut background.
For another assay, the system named is ASPC1 cells. In words: Inhibition of KRas-mediated phosphorylation of ERK (Cisbio HTRF pERK), ASPC1 cells. It counts as cell-based. The settings on record: Homo sapiens, AsPC-1 cells; for IC50: ASPC1, 3 h, 3 hr compound incubation, Cisbio pERK HTRF.
A further assay concerns the target KRas G12C (Homo sapiens, UniProt P01116, G12C). It is filed as binding. The settings on record: single point, 10 nM compound, read-out: Binding to KRas (% inhibition at 10 nM) G12C.
The subject of a further assay is PSN1 cells. In words: Inhibition of KRas-mediated phosphorylation of ERK (Cisbio HTRF pERK), PSN1 cells. It counts as cell-based. The settings on record: Homo sapiens, PSN1, 3 h, 3 hour compound incubation, Cisbio pERK HTRF. The method in brief: (§1)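 Cells were seeded on day 1 at 6,000 per well in RPMI containing 10% FBS before compound treatment and phospho-ERK detection.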

The target in a further assay is KRas Q61H (Homo sapiens, UniProt P01116, Q61H). In words: KRas binding assay (TR-FRET displacement), KRas Q61H. Conditions: single point, 10 nM compound.
Another assay deals with A549 cells. In words: Inhibition of KRas-mediated phosphorylation of ERK (Cisbio HTRF pERK), A549 cells. It counts as cell-based. Conditions: Homo sapiens; for IC50: A549, 3 h, 3 hr compound incubation, Cisbio pERK HTRF; for inhibition at 0.1 µM: single point at 100 nM, 3 hrs compound incubation.
A further assay has as its system H358 cells. Nature of the assay: Inhibition of KRas-mediated phosphorylation of ERK (Cisbio HTRF pERK), H358 cells. It is filed as cell-based. The settings on record: Homo sapiens; for IC50: NCI-H358, 3 h, 3 hr compound incubation, Cisbio pERK HTRF; for inhibition at 0.1 µM: NCI-H358, single point at 100 nM, 3 hrs compound incubation.
The target of another assay is KRas G13D (Homo sapiens, UniProt P01116, G13D). It counts as binding. The settings on record: single point, 10 nM compound, read-out: Binding to KRas (% inhibition at 10 nM) G13D.
For another assay, the target named is KRas G12A (Homo sapiens, UniProt P01116, G12A). It is filed as binding. Conditions: single point, 10 nM compound, read-out: Binding to KRas (% inhibition at 10 nM) G12A.
Another assay addresses KRas G12R (Homo sapiens, UniProt P01116, G12R). In words: biochemical. The settings on record: Binding to KRas (IC50 nM) G12R, TR-FRET displacement, KRas G12R.
Another assay concerns H460 cells. Nature of the assay: Inhibition of KRas-mediated phosphorylation of ERK (Cisbio HTRF pERK), H460 cells. It counts as cell-based. The settings on record: Homo sapiens; for IC50: NCI-H460, 3 h, 3 hr compound incubation, Cisbio pERK HTRF; for inhibition at 0.1 µM: NCI-H460, single point at 100 nM, 3 hrs compound incubation.
A further assay deals with KRas G12S (Homo sapiens, UniProt P01116, G12S). It counts as binding. Conditions: single point, 10 nM compound, read-out: Binding to KRas (% inhibition at 10 nM) G12S.
The target of another assay is KRas WT (Homo sapiens, UniProt P01116). Nature of the assay: KRas binding assay (TR-FRET displacement), KRas WT. Conditions: single point, 10 nM compound.
The target in a further assay is KRas G12V (Homo sapiens, UniProt P01116, G12V). In words: biochemical. Conditions: Binding to KRas (IC50 nM) G12V, TR-FRET displacement, KRas G12V.
For the next assay, the target named is KRas G12D (Homo sapiens, UniProt P01116, G12D). Nature of the assay: biochemical. The settings on record: Binding to KRas (IC50 nM) G12D, TR-FRET displacement, KRas G12D.
Another assay concerns MKN1 cells. In words: Inhibition of KRas-mediated phosphorylation of ERK (Cisbio HTRF pERK), MKN1 cells. It is filed as cell-based. The settings on record: Homo sapiens, MKN-1, 3 hour compound incubation, Cisbio pERK HTRF. Put shortly:
as §1

KRas G12A, sequence (P01116 1-169 isoform P01116-2 G12A): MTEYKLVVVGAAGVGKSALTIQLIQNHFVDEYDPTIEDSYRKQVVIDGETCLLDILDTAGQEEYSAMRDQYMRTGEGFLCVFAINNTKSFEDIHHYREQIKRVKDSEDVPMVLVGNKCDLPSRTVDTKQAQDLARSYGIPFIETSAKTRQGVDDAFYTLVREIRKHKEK
KRas G12R, sequence (P01116 1-169 isoform P01116-2 G12R): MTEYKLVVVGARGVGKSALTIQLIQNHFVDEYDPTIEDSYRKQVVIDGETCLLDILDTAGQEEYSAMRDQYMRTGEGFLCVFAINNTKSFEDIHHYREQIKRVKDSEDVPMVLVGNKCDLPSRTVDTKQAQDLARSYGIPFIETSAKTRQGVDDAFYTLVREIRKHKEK
KRas WT, sequence (P01116 1-169 isoform P01116-2): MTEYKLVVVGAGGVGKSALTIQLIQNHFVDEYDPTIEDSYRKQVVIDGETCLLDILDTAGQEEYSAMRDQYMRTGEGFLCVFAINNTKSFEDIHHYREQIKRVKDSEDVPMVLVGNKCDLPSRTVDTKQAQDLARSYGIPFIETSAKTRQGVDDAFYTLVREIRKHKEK
KRas G12S, sequence (P01116 1-169 isoform P01116-2 G12S): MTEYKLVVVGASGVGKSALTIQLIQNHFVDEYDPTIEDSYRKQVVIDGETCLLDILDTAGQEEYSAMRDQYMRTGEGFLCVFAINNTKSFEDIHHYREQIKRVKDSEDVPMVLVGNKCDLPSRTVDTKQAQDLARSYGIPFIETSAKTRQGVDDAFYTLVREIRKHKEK
KRas G13D, sequence (P01116 1-169 isoform P01116-2 G13D): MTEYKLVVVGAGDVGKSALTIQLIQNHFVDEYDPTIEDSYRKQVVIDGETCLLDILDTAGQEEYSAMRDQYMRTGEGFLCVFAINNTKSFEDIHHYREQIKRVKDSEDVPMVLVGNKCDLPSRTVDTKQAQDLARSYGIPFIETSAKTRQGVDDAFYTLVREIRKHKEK
KRas G12D, sequence (P01116 1-169 isoform P01116-2 G12D): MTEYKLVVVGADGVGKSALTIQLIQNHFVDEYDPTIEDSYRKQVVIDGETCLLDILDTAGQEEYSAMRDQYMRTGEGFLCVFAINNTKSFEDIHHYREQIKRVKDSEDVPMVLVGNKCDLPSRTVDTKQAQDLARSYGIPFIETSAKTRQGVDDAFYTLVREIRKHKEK
KRas G12V, sequence (P01116 1-169 isoform P01116-2 G12V): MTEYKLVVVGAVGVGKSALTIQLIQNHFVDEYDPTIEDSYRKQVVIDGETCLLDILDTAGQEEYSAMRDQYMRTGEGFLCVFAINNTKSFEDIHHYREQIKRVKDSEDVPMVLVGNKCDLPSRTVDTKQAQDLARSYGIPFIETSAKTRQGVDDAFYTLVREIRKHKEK
KRas Q61H, sequence (P01116 1-169 isoform P01116-2 Q61H): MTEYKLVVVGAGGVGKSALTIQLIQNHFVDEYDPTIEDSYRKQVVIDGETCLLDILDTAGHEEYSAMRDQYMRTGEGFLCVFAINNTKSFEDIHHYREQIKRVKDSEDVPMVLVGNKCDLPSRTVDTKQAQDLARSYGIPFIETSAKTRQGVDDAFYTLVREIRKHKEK
KRas G12C, sequence (P01116 1-169 isoform P01116-2 G12C): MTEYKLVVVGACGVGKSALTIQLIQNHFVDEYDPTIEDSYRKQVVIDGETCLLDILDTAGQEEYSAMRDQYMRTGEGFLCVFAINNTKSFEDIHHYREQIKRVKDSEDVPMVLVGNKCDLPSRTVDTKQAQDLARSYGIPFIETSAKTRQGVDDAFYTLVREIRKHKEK

As to `CCc1c(F)ccc2cc(O)cc(N3CCc4c(nc(OC[C@@]56CCCN5C[C@H](F)C6)nc4N4CCCn5nc(C(=O)N6C[C@@H]7C[C@H](C6)[C@H](O)C7)cc5C4)C3)c12` [Example 268, (5-(7-(8-ethyl-7-fluoro-3-hydroxynaphthalen-1-yl)-2-(((2R,7aS)-2-fluorohexahydro-1H-pyrrolizin-7a-yl)methoxy)-5,6,7,8-tetrahydropyrido[3,4-d]pyrimidin-4-yl)-5,6,7,8-tetrahydro-4H-pyrazolo[1,5-a][1,4]diazepin-2-yl)((1R,5R,6R)-6-hydroxy-3-azabicyclo[3.2.1]octan-3-yl)methanone], the IC50 with HCT116 cells was 218 nM; with H727 cells, 32 nM; in the assay with ASPC1 cells, 18 nM; in the assay on PSN1 cells, > 10000 nM; in the assay with A549 cells it was 83 nM; in the assay on H358 cells, 7 nM. In addition, the concentration for half-maximal inhibition (IC50) was < 2 nM at KRas G12R; 56 nM in the assay with H460 cells; < 2 nM at KRas G12V; < 2 nM at KRas G12D; 8.9 nM with MKN1 cells. The inhibition at 0.1 µM with H727 cells (NCI-H727, single point at 100 nM, 3 hrs compound incubation) came to 49%; in the assay with ASPC1 cells (ASPC1, single point at 100 nM, 3 hrs compound incubation) it was 84%; in the assay on A549 cells it was 67%; in the assay with H358 cells it was 104%. For the same compound, the inhibition at 0.01 µM at KRas G12C stood at 99%; on KRas Q61H it was 99%; on KRas G13D it was 99%; at KRas G12A, 98%; on KRas G12S, 99%; at KRas WT, 98%.

Consider `CCc1c(F)ccc2cc(O)cc(N3CCc4c(nc(OC[C@@]56CCCN5C[C@H](F)C6)nc4N4CCCn5nc(C(=O)N(C)C)c(COC)c5C4)C3)c12` [Example 269, 5-(7-(8-ethyl-7-fluoro-3-hydroxynaphthalen-1-yl)-2-(((2R,7aS)-2-fluorohexahydro-1H-pyrrolizin-7a-yl)methoxy)-5,6,7,8-tetrahydropyrido[3,4-d]pyrimidin-4-yl)-3-(methoxymethyl)-N,N-dimethyl-5,6,7,8-tetrahydro-4H-pyrazolo[1,5-a][1,4]diazepine-2-carboxamide], for which the half-maximal inhibitory concentration (IC50) in the assay on HCT116 cells stood at 25 nM; in the assay with H727 cells, 5 nM; in the assay on ASPC1 cells, 3 nM; with PSN1 cells it was 9880 nM; in the assay on A549 cells, 2 nM; in the assay with H358 cells it was 1 nM. Moreover, the half-maximal inhibitory concentration (IC50) at KRas G12R was < 2 nM; with H460 cells it was 8 nM; at KRas G12V, < 2 nM; on KRas G12D, < 2 nM; with MKN1 cells it was 1.4 nM. Further, the inhibition at 0.01 µM stood at 100% on KRas G12C; 98% at KRas Q61H; 99% at KRas G13D; 99% on KRas G12A; 100% on KRas G12S; 99% at KRas WT. The figures for the inhibition at 0.1 µM in the assay with A549 cells, in the assay with H358 cells and in the assay with H460 cells were 93%, 100% and 89%, respectively.

Regarding `CCc1c(F)ccc2cc(O)cc(N3CCc4c(nc(OC[C@@]56CCCN5C[C@H](F)C6)nc4N4CCCn5nc(C(=O)N6C[C@H](C)N[C@@H](C)C6)cc5C4)C3)c12` [Example 282, ((3S,5S)-3,5-dimethylpiperazin-1-yl)(5-(7-(8-ethyl-7-fluoro-3-hydroxynaphthalen-1-yl)-2-(((2R,7aS)-2-fluorohexahydro-1H-pyrrolizin-7a-yl)methoxy)-5,6,7,8-tetrahydropyrido[3,4-d]pyrimidin-4-yl)-5,6,7,8-tetrahydro-4H-pyrazolo[1,5-a][1,4]diazepin-2-yl)methanone], the 50% inhibitory concentration (IC50) in the assay with HCT116 cells was 172 nM; with H727 cells, 128 nM; in the assay with ASPC1 cells it was 9 nM; in the assay on PSN1 cells, > 10000 nM; in the assay with A549 cells it was 53 nM; with H358 cells it was 16 nM. The IC50 on KRas G12R was < 2 nM; in the assay with H460 cells, 93 nM; at KRas G12V, < 2 nM; at KRas G12D it was < 2 nM; with MKN1 cells, 35.1 nM. In addition, the inhibition at 0.1 µM in the assay with HCT116 cells is 12%; in the assay with A549 cells it was 37%; in the assay on H358 cells, 88%; in the assay on H460 cells, 35%. The inhibition at 0.01 µM was determined as 99% on KRas G12C; 99% on KRas Q61H; 99% on KRas G13D; 98% on KRas G12A; 100% on KRas G12S; 98% at KRas WT.

On to `CCc1c(F)ccc2cc(O)cc(N3CCc4c(nc(OC[C@@]56CCCN5C[C@H](F)C6)nc4N4CCCn5nc(C(=O)N6CC7CC(C6)N7)cc5C4)C3)c12` [Example 283, 3,6-diazabicyclo[3.1.1]heptan-3-yl(5-(7-(8-ethyl-7-fluoro-3-hydroxynaphthalen-1-yl)-2-(((2R,7aS)-2-fluorohexahydro-1H-pyrrolizin-7a-yl)methoxy)-5,6,7,8-tetrahydropyrido[3,4-d]pyrimidin-4-yl)-5 6,7,8-tetrahydro-4Hi-pyrazolo[1,5-a][1,4]diazepin-2-yl)methanone], for which the inhibition at 0.1 µM is -8% in the assay on HCT116 cells, 40% with A549 cells, 48% in the assay on H358 cells and 18% in the assay on H460 cells. In addition, the 50% inhibitory concentration (IC50) in the assay on H727 cells was 106 nM; in the assay on ASPC1 cells, 22 nM; with PSN1 cells, > 10000 nM; at KRas G12R, < 2 nM; at KRas G12V, < 2 nM; on KRas G12D it was < 2 nM. This compound had an IC50 with MKN1 cells of 155 nM. The inhibition at 0.01 µM on KRas G12C amounted to 99%; at KRas Q61H it was 97%; on KRas G13D it was 98%; on KRas G12A, 97%; on KRas G12S, 99%; at KRas WT it was 95%.

On to `CCc1c(F)ccc2cc(O)cc(N3CCc4c(nc(OC[C@@]56CCCN5C[C@H](F)C6)nc4N4CCCn5nnc(Br)c5C4)C3)c12` [Example 284, 4-(4-(3-bromo-7,8-dihydro-4H-[1,2,3]triazolo[1,5-a][1,4]diazepin-5(6H)-yl)-2-(((2R,7aS)-2-fluorohexahydro-1H-pyrrolizin-7a-yl)methoxy)-5,6-dihydropyrido[3,4-d]pyrimidin-7(8H)-yl)-5-ethyl-6-fluoronaphthalen-2-ol], for which the IC50 was 157 nM in the assay with HCT116 cells; 21 nM with H727 cells; 3 nM in the assay on ASPC1 cells; > 10000 nM in the assay on PSN1 cells; 22 nM in the assay on A549 cells; 10 nM in the assay on H358 cells. The half-maximal inhibitory concentration (IC50) on KRas G12R was < 2 nM; with H460 cells it was 64 nM; on KRas G12V it was < 2 nM; on KRas G12D, < 2 nM; with MKN1 cells, 30.5 nM. Moreover, the inhibition at 0.1 µM came out at 27% in the assay on HCT116 cells, 66% in the assay with A549 cells, 89% in the assay on H358 cells and 53% in the assay with H460 cells. Further, the inhibition at 0.01 µM on KRas G12C was determined as 95%; on KRas Q61H, 89%; at KRas G13D, 90%; at KRas G12A, 88%; on KRas G12S it was 96%; on KRas WT, 88%.
